According to patent publication US9089587B2, “Treatment of papulopustular rosacea with ivermectin” (Galderma S.A., priority 2013, dated 2015):

Columns and labels:
[1] = tested on: subjects with moderate or severe papulopustular rosacea; test: Study 1 and Study 2: once-daily ivermectin 1% cream vs vehicle, first part, 12 weeks (Example 3); format: in vivo, human
Method: Both studies were conducted in accordance with the ethical principles of the Declaration of Helsinki and Good Clinical Practices, and in compliance with local regulatory requirements.
Each study had three parts. In the first part of the study, subjects with PPR were treated with ivermectin 1% cream (IVM 1%) or vehicle once daily at bedtime for 12 weeks. In the second part of the study, subjects initially treated with IVM 1% once daily at bedtime continued the same treatment, while subjects treated with the vehicle once daily switched to topical treatment with azelaic acid 15% gel twice daily, in the morning and evening. The third part of the study consisted of 4 weeks safety follow-up, without treatment. […]
Efficacy assessments at each visit were the IGA of disease severity, and inflammatory lesion counts (papules and pustules) on each of the five facial regions (forehead, chin, nose, right cheek, left cheek). Safety assessments included adverse events (AEs) throughout the study, local tolerance parameters (stinging/burning, dryness, itching) at each study visit evaluated on a 4-point scale [from 0 (none) to 3 (severe)], and laboratory parameters (hematology and biochemistry) measured before and after treatment. […]

[2] = tested on: subjects with moderate or severe papulopustular rosacea; test: Ivermectin 1% cream vs metronidazole 0.75% cream, Period A, 16 weeks (Example 4); format: in vivo, human; conditions: week 12 (highest difference)
Description: Study visits during Period A were as follows: a screening visit, and at baseline, weeks 3, 6, 9, 12 and 16.
Eligible subjects were 18 years or older, with moderate or severe papulopustular rosacea as noted by an IGA of 3 (“several small or large papules/pustules, moderate erythema”) or 4 (“numerous small and/or large papules/pustules, severe erythema”), and presenting with 15-70 facial inflammatory lesions (papules and pustules).
The subjects were instructed to maintain a consistent lifestyle throughout the study regarding rosacea triggers (i.e. avoiding environmental factors, certain foods, and excessive sun exposure).
Efficacy assessments at each visit were inflammatory lesion counts (papules and pustules) counted on five facial regions (forehead, chin, nose, right cheek, left cheek), and the Investigator's Global Assessment (IGA) of disease severity. Safety assessments included adverse events (AEs) throughout the study, local tolerance parameters (stinging/burning, dryness, itching) at each visit evaluated on a 4-point scale (from 0 (none) to 3 (severe)), and laboratory parameters measured at baseline, weeks 9 and 16. Other assessments included the subject's evaluation of rosacea improvement compared to their condition at baseline, and subject's appreciation questionnaire at the end of the study (regarding satisfaction with the study drug). […]

## 5-O-demethyl-22,23-dihydroavermectin A1a plus 5-O-demethyl-25-de(1-methylpropyl)-25-(1-methylethyl)-22,23-dihydroavermectin A1a [ivermectin]
[1]; Study 1, week 2
  median reduction from baseline in inflammatory lesion counts: about 30%
[1]; Study 2, week 2
  median reduction from baseline in inflammatory lesion counts: 27.3%
[2]
  difference in IGA success rate, ivermectin superior to metronidazole: 14.9%
